Among the data in patent publication US9550752B2, “Triazolinthione derivatives” (priority 2013, dated 2017) are LogP values, retold here.

SMILES strings stand for the structures. Marks after values point to notes of the source that are not given here.

By LogP is commonly meant a log measure of how a compound divides between an organic and an aqueous phase. The low end stands for a more hydrophilic compound, the high end for a more lipophilic compound.

For the first data set the following is noted: method [a]: pH 2.7, 0.1% formic acid in water/acetonitrile; Table 1, formula (I).
Regarding `OC(Cc1cc(Cl)nc(Cl)c1)(Cn1ncnc1S)C1(Cl)CC1` (centres unmarked) [Example I-8], the LogP was 3.10^[a].

Take `OC(Cc1ccc2ccccc2n1)(Cn1ncnc1S)C1(Cl)CC1` (centres unmarked) [Example I-7]: the LogP is 1.60^[a].

The data set is the same for the next values; noted with them: method [a]: pH 2.7; Table 3, formula (V).
Turning to `CC(C)(C)C(=O)Cc1cccnc1Cl` [Example V-16], the LogP was 2.34^[a].

As for `CC(C)C(C)(C)C(=O)Cc1ccncc1Cl` [Example V-18], the LogP is 3.00^[a].

Turning to `O=C(Cc1ccc(Cl)nc1)C1(Cl)CC1` [Example V-6], the LogP is listed as 2.34.

For `O=C(Cc1cccnc1Cl)C(CF)(CF)CF` [Example V-25], the LogP is 1.98^[a].

For `CC(C)(C)C(=O)Cc1cnc2ccccc2c1` [Example V-14], the LogP was 1.60^[a].

In turn, `CC(C)(C)C(=O)Cc1cccnc1` [Example V-19] registered a LogP of 0.41.

Still in this data set, the particulars now being: method [a]: pH 2.7; Table 4, formula (XII).
Turning to `CC(C)(C)C1(Cc2c(Cl)cncc2Cl)CO1` (centres unmarked) [XII-52], the LogP is 3.89^[a].

As to `CC(C)C(C)(C)C1(Cc2ccncc2F)CO1` (centres unmarked) [XII-17], the LogP is 3.19^[a].

Consider `CC(C)C(C)(C)C1(Cc2ccnc(Cl)c2)CO1` (centres unmarked) [XII-21], for which the LogP is 3.94^[a].

In the case of `CC(C)(C)C1(Cc2ccnc(Cl)c2F)CO1` (centres unmarked) [XII-46], the LogP is 3.37^[a].

In the case of `CC(C)(C)C1(Cc2cc(Cl)ncc2F)CO1` (centres unmarked) [XII-28], the LogP is 3.42^[a].

In the case of `CC(C)(C)C1(Cc2ccncc2F)CO1` (centres unmarked) [XII-12], the LogP was 2.31^[a].

As for `CCC(C)(C)C1(Cc2ccncc2F)CO1` (centres unmarked) [XII-15], the LogP is 2.76^[a].

Turning to `CCC(C)(C)C1(Cc2ccncc2Cl)CO1` (centres unmarked) [XII-34], the LogP was 3.33^[a].

Still in this data set, the particulars now being: method [b]: pH 7.8; Table 3, formula (V).
For `O=C(Cc1ccc(Cl)nc1)C1(Cl)CC1` [Example V-6], the LogP was 2.30.

With `CC(C)(C)C(=O)Cc1cccnc1` [Example V-19], the LogP turned out to be 1.71.

Still in this data set, the particulars now being: pH 2.7.
For `CC(CF)(CF)C(O)(Cc1cc(Cl)ncc1F)Cn1cncn1` (racemic) [XXI-49], the LogP is 1.89^[a].

Consider `OC(Cc1nccnc1I)(Cn1cncn1)C1(Cl)CC1` (racemic) [XXI-59], for which the LogP was 2.07^[a].

Regarding `CC(C)(C)C(O)(Cc1cc(F)ncc1Cl)Cn1cncn1` (racemic) [XXI-126], the LogP is 2.39^[a].

Turning to `CC(C)(C)C(O)(Cc1ccc(Cl)c(Cl)n1)Cn1cncn1` (racemic) [XXI-109], the log partition coefficient (LogP) is 2.78^[a].

Consider `CC(C)(Oc1ccc(Cl)cc1)C(O)(Cc1ccncc1Cl)Cn1cncn1` (centres unmarked) [XXI-75], for which the log partition coefficient (LogP) was 2.84^[a].

As to `Cc1cc(C(O)(Cc2ccncc2Cl)Cn2cncn2)nn1C` (centres unmarked) [XXI-71], the LogP was 0.84^[a].

Consider `OC(CCl)(Cc1cc(Cl)nc(Cl)c1)C1(Cl)CC1` (centres unmarked) [XV-1], for which the LogP was 3.85^[a].

Consider `CC(C)(C)C(O)(Cc1ccncc1Cl)Cn1ncnc1S` (centres unmarked) [Example I-2], for which the LogP was 2.14^[a].

With `CCC(C)(C)C(O)(Cc1ccncc1F)Cn1cncn1` (racemic) [XXI-104], the LogP was 1.73^[a].

Consider `CC(C)(C)C(O)(Cc1cc(Cl)nc(Cl)c1)Cn1cncn1` (racemic) [XXI-106], for which the LogP was 2.64^[a].

For `CC(C)(C)C(O)(Cc1cccnc1Cl)Cn1cncn1` (centres unmarked) [XXI-10], the lipophilicity (LogP) is 1.94^[a].

Turning to `CC(C)CCC(O)(Cc1ccncc1Cl)Cn1cncn1` (racemic) [XXI-128], the LogP is 2.00^[a].

For the compound `CC1(C(O)(Cc2ccncc2Cl)Cn2cncn2)CC1` (racemic) [XXI-54], the LogP is 1.57^[a].

With `OC(Cc1ncnc(Cl)c1Cl)(Cn1cncn1)C1(Cl)CC1` (racemic) [XXI-62], the LogP was 2.28^[a].

Turning to `OC(Cc1cc(Cl)ccn1)(Cn1cncn1)C1(Cl)CC1` (racemic) [XXI-52], the LogP is 2.02^[a].

Turning to `CC(C)(C)C(O)(Cc1ccncc1F)Cn1ncnc1S` (centres unmarked) [Example I-18], the LogP is 1.79^[a].

On to `CC(C)(C)C(O)(Cc1cc(Cl)cc(Cl)n1)Cn1ncnc1S` (centres unmarked) [Example I-10], for which the LogP is 3.07^[a].

Turning to `OC(Cc1ccnc(Cl)c1F)(Cn1cncn1)C1(Cl)CC1` (racemic) [XXI-65], the LogP was 2.02^[a].

Regarding `CC(C)(C)C(O)(Cc1ccnc(Cl)c1)Cn1cncn1` (racemic) [XXI-112], the LogP is 1.93^[a].

`OC(Cc1ccc(F)cc1)(Cc1ccncc1Cl)Cn1cncn1` (centres unmarked) [XXI-80]: the LogP was 1.93^[a].

For the compound `CC(C)(C)C(O)(Cc1cccc(Cl)n1)Cn1cncn1` (racemic) [XXI-110], the LogP was 2.30^[a].

Regarding `CCC(C)(C)C(O)(Cc1ccncc1Cl)Cn1ncnc1S` (centres unmarked) [Example I-20], the LogP was 2.50^[a].

With `CC(C)(C)C(O)(Cc1ccnc(Cl)c1F)Cn1cncn1` (racemic) [XXI-124], the LogP is 2.16^[a].

For `CC(C)(C)C(O)(Cc1cccnc1Cl)Cn1ncnc1S` (centres unmarked) [Example I-1], the lipophilicity (LogP) is 2.31^[a].

`OC(Cc1cncc(Oc2ccc(Cl)cc2)n1)(Cn1cncn1)C1(Cl)CC1` (racemic) [XXI-61]: the LogP was 2.88^[a].

`CC(C)(C)C(O)(Cc1nc(Cl)ccc1Cl)Cn1cncn1` (racemic) [XXI-130]: the LogP was 2.82^[a].

`CC(C)(C)C(O)(Cc1ccncc1Cl)Cn1cncn1` (centres unmarked) [XXI-11]: the LogP is 1.74^[a].

Turning to `OC(Cc1ccnc(Cl)c1)(Cn1cncn1)C1(Cl)CC1` (racemic) [XXI-44], the LogP is 1.76^[a].

In the case of `CCOC(=O)OC(Cc1cccnc1Cl)(Cn1cncn1)C(C)(C)C` (racemic) [XXI-121], the LogP was 2.67^[a].

Turning to `CC(CF)(CF)C(O)(Cc1ccnc(Cl)c1)Cn1cncn1` (racemic) [XXI-41], the LogP is 1.66^[a].

As to `OC(Cc1cccc(Cl)c1)(Cc1ccnc(Cl)c1F)Cn1cncn1` (centres unmarked) [XXI-93], the LogP was 2.02^[a].

Regarding `CCCCc1nc2ccccc2cc1CC(O)(Cn1ncnc1S)C(C)(C)C` (centres unmarked) [Example I-6], the LogP is 1.88^[a].

As to `OC(Cc1nc(Cl)ccc1Cl)(Cn1cncn1)C1(Cl)CC1` (racemic) [XXI-101], the LogP is 2.73^[a].

As to `OC(Cc1cc(Cl)ncc1F)(Cn1cncn1)c1cccnc1Cl` (racemic) [XXI-48], the LogP is 1.57^[a].

For the compound `OC(Cc1ccnc(Cl)c1)(Cn1cncn1)c1ccc(Cl)nc1` (racemic) [XXI-43], the LogP was 1.38^[a].

Regarding `CC(C)(C)C(O)(Cc1ccc(Cl)nc1)Cn1cncn1` (centres unmarked) [XXI-9], the LogP was 1.98^[a].

As for `OC(Cc1ccnnc1Cl)(Cn1cncn1)C1(Cl)CC1` (racemic) [XXI-50], the LogP was 1.31^[a].

`CC(C)(C)C(O)(Cc1cc(Cl)cc(Cl)n1)Cn1cncn1` (racemic) [XXI-108]: the LogP is 2.86^[a].

For `OC(Cc1cccnc1F)(Cn1cncn1)C1(Cl)CC1` (racemic) [XXI-56], the LogP was 1.64^[a].

For `CC(C)(C)C(O)(Cc1ccnc2ccccc12)Cn1cncn1` (racemic) [XXI-107], the LogP was 1.17^[a].

`OC(Cc1cc(Cl)ncc1F)(Cn1cncn1)C1(F)CC1` (racemic) [XXI-46]: the LogP was 1.66^[a].

Turning to `OC(Cc1ccnc2ccccc12)(Cn1ncnc1S)C1(Cl)CC1` (centres unmarked) [Example I-12], the LogP is 1.37^[a].

As for `CC(C)(C)C(O)(Cc1ccc(Cl)c(Cl)n1)Cn1ncnc1S` (centres unmarked) [Example I-14], the LogP was 3.00^[a].

`OC(Cc1ccnc(Cl)c1F)(Cn1cncn1)c1cccnc1Cl` (racemic) [XXI-64]: the LogP was 1.54^[a].

The same data set, now with this note: pH 7.8.
On to `CC(C)(C)C(O)(Cc1cccnc1Cl)Cn1cncn1` (centres unmarked) [XXI-10], for which the LogP is 1.90^[b];.

Regarding `CCOC(=O)OC(Cc1cccnc1Cl)(Cn1cncn1)C(C)(C)C` (racemic) [XXI-121], the LogP is 2.56^[b];.

On to `CC(C)(C)C(O)(Cc1ccc(Cl)nc1)Cn1cncn1` (centres unmarked) [XXI-9], for which the LogP is 1.98^[b];.
